Laboratory results as given in ChEMBL document CHEMBL1147462, “Exploring QSAR of melatonin receptor ligand benzofuran derivatives using E-state index” (Bioorg Med Chem Lett, 2004).

Columns and labels:
[1] = molecular target: Melatonin receptor type 1A (Homo sapiens) (UniProt P48039); experiment: Binding affinity against Melatonin receptor type 1A
[2] = molecular target: T1, Melatonin receptor (Homo sapiens) (UniProt P48039+P49286); experiment: Selectivity (pC2-PC1) was determined; type: protein assay
[3] = molecular target: T2, Melatonin receptor type 1B (Homo sapiens) (UniProt P49286); experiment: Binding affinity against melatonin receptor type 1B
T2 sequence (whole entry): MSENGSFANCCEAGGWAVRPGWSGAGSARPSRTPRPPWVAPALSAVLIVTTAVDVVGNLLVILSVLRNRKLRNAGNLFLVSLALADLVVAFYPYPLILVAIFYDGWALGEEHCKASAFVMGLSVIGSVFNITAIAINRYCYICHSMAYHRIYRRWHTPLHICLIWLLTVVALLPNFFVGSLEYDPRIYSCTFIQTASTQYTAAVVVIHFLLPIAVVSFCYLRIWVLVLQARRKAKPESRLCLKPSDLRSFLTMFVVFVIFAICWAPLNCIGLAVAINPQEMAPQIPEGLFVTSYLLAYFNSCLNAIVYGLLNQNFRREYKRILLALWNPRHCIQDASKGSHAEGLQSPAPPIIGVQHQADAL

[4] = molecular target: T1, Melatonin receptor (Homo sapiens); experiment: Binding affinity against melatonin (MT1) receptor (pC1); type: protein assay

Melatonin receptor type 1A (Homo sapiens), sequence (P48039 whole entry): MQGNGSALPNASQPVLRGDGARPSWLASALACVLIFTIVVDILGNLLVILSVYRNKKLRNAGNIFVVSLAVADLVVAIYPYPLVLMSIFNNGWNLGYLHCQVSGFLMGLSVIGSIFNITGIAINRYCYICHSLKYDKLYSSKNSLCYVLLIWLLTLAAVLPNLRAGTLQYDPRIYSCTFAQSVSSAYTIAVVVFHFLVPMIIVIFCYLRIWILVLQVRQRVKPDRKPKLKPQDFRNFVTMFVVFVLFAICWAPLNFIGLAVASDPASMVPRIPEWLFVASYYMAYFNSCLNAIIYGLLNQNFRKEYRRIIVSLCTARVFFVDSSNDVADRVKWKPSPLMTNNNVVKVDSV
T1 sequence (P48039 whole entry, looked up, one chain of several): as the sequence (P48039 whole entry) above

Compound | pC1 [1] | Selectivity [2] | pC1 [3] | pC1 [4]
C/C=C/C(=O)NCCc1c(-c2ccccc2)oc2ccc(OC)cc12 | 3 | 0.682 | 3.68 | –
C=CCC(=O)NCCc1c(-c2ccccc2)oc2ccc(OC)cc12 | 5 | -0.301 | 4.7 | –
COc1ccc(Cc2oc3ccc(OC)cc3c2CCNC(C)=O)cc1 | 1.62 | 1.68 | 3.3 | –
C=CC(=O)NCCc1c(Cc2ccccc2)oc2ccc(OC)cc12 | 1.27 | 1.89 | 3.16 | –
COc1ccc2oc(Cc3cccc(Cl)c3)c(CCNC(C)=O)c2c1 | 2.14 | 1.51 | 3.66 | –
CCCCCOc1ccc2oc(Cc3ccccc3)c(CCNC(C)=O)c2c1 | 1.37 | 0.642 | 2.01 | –
CCCCCCOc1ccc2oc(Cc3ccccc3)c(CCNC(C)=O)c2c1 | 2.09 | 0.407 | 2.49 | –
COc1ccc2oc(-c3ccccc3)c(CCNC(=O)Cc3ccco3)c2c1 | 1.89 | -1.45 | 0.442 | –
COc1ccc2oc(CCCc3ccccc3)c(CCNC(C)=O)c2c1 | 1.5 | 1.32 | 2.82 | –
COc1ccc2oc(CC3CCCCC3)c(CCNC(C)=O)c2c1 | 1.18 | 1.43 | 2.6 | –
C=CC(=O)NCCc1c(Cc2cccc(OC)c2)oc2ccc(OC)cc12 | 1.26 | 1.3 | 2.56 | –
COc1cccc(Cc2oc3ccccc3c2CCNC(C)=O)c1 | 0.64 | 1.09 | 1.73 | –
C=CC(=O)NCCc1c(-c2ccccc2)oc2ccc(OC)cc12 | 4.7 | 0.301 | 5 | –
COc1ccc2oc(-c3ccccc3)c(CCNC(C)=O)c2c1 | 5 | -0.301 | 4.7 | –
COc1ccc2oc(Cc3ccccc3)c(CCNC(=O)CI)c2c1 | 2.06 | 1.32 | 3.39 | –
CNC(=O)NCCc1c(-c2ccccc2)oc2ccc(OC)cc12 | – | 0 | 4.4 | 4.4
COc1ccc2oc(Cc3c(Cl)cccc3Cl)c(CCNC(C)=O)c2c1 | 1.07 | 0.82 | 1.89 | –
COc1ccc2oc(Cc3cccc(C(F)(F)F)c3)c(CCNC(C)=O)c2c1 | 1.1 | 1.83 | 2.93 | –
C=CCC(=O)NCCc1c(Cc2ccccc2)oc2ccc(OC)cc12 | 2.46 | 1.77 | 4.22 | –
COc1ccc2oc(Cc3cccc(F)c3)c(CCNC(C)=O)c2c1 | 3.12 | 0.513 | 3.64 | –
COc1cccc(Cc2oc3ccc(OC)cc3c2CCNC(C)=O)c1 | – | 2.1 | 3.5 | –
CCc1ccc2oc(Cc3ccccc3)c(CCNC(C)=O)c2c1 | 1.19 | 0.893 | 2.08 | –
CNC(=O)NCCc1c(Cc2ccccc2)oc2ccc(OC)cc12 | 2.27 | 1.19 | 3.46 | –
CC(=O)NCCc1c(Cc2ccccc2)oc2ccccc12 | 0.81 | 1.17 | 1.98 | –
CC(=O)NCCc1c(Cc2ccccc2)oc2ccc(O)cc12 | 0.245 | 0.852 | 1.1 | –
CCc1ccc2oc(Cc3cccc(OC)c3)c(CCNC(C)=O)c2c1 | 0.541 | 1.23 | 1.77 | –
COc1ccc2oc(Cc3cc(C(F)(F)F)cc(C(F)(F)F)c3)c(CCNC(C)=O)c2c1 | 0.322 | 0.147 | 0.469 | –
CCCC(=O)NCCc1c(Cc2ccccc2)oc2ccc(OC)cc12 | 2.48 | 1.22 | 3.7 | –
COc1ccc2oc(Cc3ccccc3)c(CCNC(=O)c3ccco3)c2c1 | 0.156 | 1.28 | 1.44 | –
COc1ccc2oc(Cc3ccccc3OC)c(CCNC(C)=O)c2c1 | 1.84 | 2.1 | 3.47 | –
